Like-named read-outs stand apart in the source and are kept apart here.
How the values were obtained:
[1] = test system: HEL cell cultures; conditions: for MCC (minimum cytotoxic concentration): human
[2] = test system: HSV-2 (G); experiment: microbe, parasite or virus in culture; type: cell-based, herpes simplex virus type 2; conditions: Human alphaherpesvirus 2, HEL
[3] = test system: Vesicular stomatitis virus; experiment: microbe, parasite or virus in culture; type: cell-based; conditions: HEL, read-out: EC50 Vesicular stomatitis virus
[4] = test system: Vaccinia virus; experiment: microbe, parasite or virus in culture; type: cell-based; conditions: Orthopoxvirus vaccinia, HEL
[5] = test system: HSV-1 (KOS); experiment: microbe, parasite or virus in culture; type: cell-based, herpes simplex virus type 1; conditions: Human alphaherpesvirus 1, HEL
[6] = test system: HSV-1 TK^− KOS ACV^r; experiment: microbe, parasite or virus in culture; type: cell-based, herpes simplex virus-1; conditions: Human alphaherpesvirus 1, HEL
[7] = test system: Feline Corona Virus (FIPV); experiment: microbe, parasite or virus in culture; type: cell-based; conditions: Alphacoronavirus 1, CRFK, read-out: EC50 Feline Corona Virus (FIPV)
[8] = in vitro; conditions: cat
[9] = test system: Feline Herpes Virus; experiment: organism not typed; type: cell-based; conditions: CRFK, read-out: EC50 Feline Herpes Virus
[10] = read-out: EC50 HSV-1 TK^− KOS ACV^r
[11] = read-out: inhibitory activity against HSV-2 (G), one range given for several viruses
[12] = read-out: inhibitory activity against HSV-1 (KOS), one range given for several viruses
[13] = read-out: inhibitory activity against HSV-1 TK^− KOS (ACV^r), one range given for several viruses

## Nc1nc2c(ncn2COCCO)c(=O)[nH]1 [Acyclovir, reference compound]
[1]
  MCC (minimum cytotoxic concentration): >250 µM
[2]; read-out: EC50 HSV-2 (G)
  EC50: 0.35 µM
[3]
  EC50: > 250 µM
[4]; read-out: EC50 Vaccinia virus
  EC50: > 250 µM
[5]; read-out: EC50 HSV-1 (KOS)
  EC50: 0.3 µM
[6]; [10]
  EC50: 20 µM

## O=c1oc2ccccc2c(O)c1C(c1ccccc1)c1c(O)c2ccccc2oc1=O [Compound 1, 3,3′-(Benzilidene)-bis-[4-hydroxycoumarin]]
[7]
  EC50: 7.5 µM
[8]
  CC50: 43 µM
[9]
  EC50: 9.1 µM

## COc1cc(C(c2c(O)c3ccccc3oc2=O)c2c(O)c3ccccc3oc2=O)cc([N+](=O)[O-])c1O [Compound 15, 3,3′-(4-Hydroxy-3-methoxy-5-nitrobenzylidene)-bis-[4-hydroxycoumarin]]
other
  melting point: 199.6 °C
[1]
  MCC (minimum cytotoxic concentration): >100 µM
[2]; read-out: EC50 HSV-2 (G)
  EC50: > 100 µM
[3]
  EC50: > 100 µM
[4]; read-out: EC50 Vaccinia virus
  EC50: > 100 µM
[5]; read-out: EC50 HSV-1 (KOS)
  EC50: > 100 µM
[6]; [10]
  EC50: > 100 µM

## O=c1oc2ccccc2c(O)c1C1c2cc([N+](=O)[O-])ccc2Oc2c1c(=O)oc1ccccc21 (stereo not drawn) [Compound 19, 3-[6-Oxo-(1H)-18-nitrobenzopyrano[4,3-b]benzopyran-7-yl]-4-hydroxycoumarin]
other
  melting point: 315.7 °C
[1]; 100 µM
  cytostatic activity at 100 µM: no cytotostatic activity
[1]
  MCC (minimum cytotoxic concentration): >100 µM
[2]; read-out: EC50 HSV-2 (G)
  EC50: 45 µM
[2]; [11]
  EC50: 45 to 50 µM
[3]
  EC50: > 100 µM
[4]; read-out: EC50 Vaccinia virus
  EC50: > 100 µM
[5]; read-out: EC50 HSV-1 (KOS)
  EC50: 50 µM
[5]; [12]
  EC50: 45 to 50 µM
[6]; [10]
  EC50: 50 µM
[6]; [13]
  EC50: 45 to 50 µM

## Nc1ccn(C[C@@H](CO)OCP(=O)(O)O)c(=O)n1 [Cidofovir, (S)-1-[3-hydroxy-2-(phosphonyl-methoxy)propyl]cytosine, reference compound]
[1]
  MCC (minimum cytotoxic concentration): >250 µM
[2]; read-out: EC50 HSV-2 (G)
  EC50: 1.5 µM
[3]
  EC50: > 250 µM
[4]; read-out: EC50 Vaccinia virus
  EC50: 7.9 µM
[5]; read-out: EC50 HSV-1 (KOS)
  EC50: 0.9 µM
[6]; [10]
  EC50: 1.5 µM

## O=c1[nH]c(=O)n([C@H]2C[C@H](O)[C@@H](CO)O2)cc1/C=C/Br [Brivudin, (E)-5-(2-bromovinyl)-2’-deoxyuridine, reference compound]
[1]
  MCC (minimum cytotoxic concentration): >250 µM
[2]; read-out: EC50 HSV-2 (G)
  EC50: 182 µM
[3]
  EC50: > 250 µM
[4]; read-out: EC50 Vaccinia virus
  EC50: 3.2 µM
[5]; read-out: EC50 HSV-1 (KOS)
  EC50: 0.06 µM
[6]; [10]
  EC50: 50 µM

## COc1ccc(OC)c(C(c2c(O)c3ccccc3oc2=O)c2c(O)c3ccccc3oc2=O)c1 [Compound 14, 3,3′-(2,5-Dimethoxybenzylidene)-bis-[4-hydroxycoumarin]]
other
  melting point: 181.6 °C
[1]
  MCC (minimum cytotoxic concentration): >100 µM
[2]; read-out: EC50 HSV-2 (G)
  EC50: > 100 µM
[3]
  EC50: > 100 µM
[4]; read-out: EC50 Vaccinia virus
  EC50: > 100 µM
[5]; read-out: EC50 HSV-1 (KOS)
  EC50: > 100 µM
[6]; [10]
  EC50: > 100 µM

## O=c1oc2ccccc2c(O)c1C(c1ccc(Cl)cc1)c1c(O)c2ccccc2oc1=O [Compound 4, 3,3’-(4-Chlorobenzylidene)-bis-[4-hydroxycoumarin]]
[7]
  EC50: 9.1 µM
[8]
  CC50: 45 µM
[9]
  EC50: 7.6 µM

## O=c1oc2ccccc2c(O)c1C(c1ccccc1[N+](=O)[O-])c1c(O)c2ccccc2oc1=O [Compound 9, 3,3’-(2-Nitrobenzylidene)-bis-[4-hydroxycoumarin]]
other
  melting point: 202 °C
[7]
  EC50: 8.3 µM
[8]
  CC50: 34 µM
[9]
  EC50: 14 µM

## CSc1ccc(C(c2c(O)c3ccccc3oc2=O)c2c(O)c3ccccc3oc2=O)cc1 [Compound 11, 3,3′-(4-Methyltiobenzylidene)-bis-[4-hydroxycoumarin]]
other
  melting point: 258.7 °C
[1]
  MCC (minimum cytotoxic concentration): 100 µM
[2]; read-out: EC50 HSV-2 (G)
  EC50: > 20 µM
[3]
  EC50: > 20 µM
[4]; read-out: EC50 Vaccinia virus
  EC50: > 20 µM
[5]; read-out: EC50 HSV-1 (KOS)
  EC50: > 20 µM
[6]; [10]
  EC50: > 20 µM

## O=c1oc2ccccc2c(O)c1C(c1ccc(F)cc1)c1c(O)c2ccccc2oc1=O [Compound 6, 3,3′-(4-Fluorobenzylidene)-bis-[4-hydroxycoumarin]]
other
  melting point: 214.5 °C
[7]
  EC50: 7.7 µM
[8]
  CC50: 39 µM
[9]
  EC50: 8.1 µM

## O=c1oc2ccccc2c(O)c1C(c1ccc(O)c(O)c1)c1c(O)c2ccccc2oc1=O [Compound 13, 3,3′-(3,4-Dihydroxybenzylidene)-bis-[4-hydroxycoumarin]]
other
  melting point: 227.5 °C
[1]
  MCC (minimum cytotoxic concentration): 100 µM
[2]; read-out: EC50 HSV-2 (G)
  EC50: > 20 µM
[3]
  EC50: > 20 µM
[4]; read-out: EC50 Vaccinia virus
  EC50: > 20 µM
[5]; read-out: EC50 HSV-1 (KOS)
  EC50: > 20 µM
[6]; [10]
  EC50: > 20 µM

## COc1ccccc1C(c1c(O)c2ccccc2oc1=O)c1c(O)c2ccccc2oc1=O [Compound 5, 3,3′-(2-Methoxybenzylidene)bis[4-hydroxycoumarin]]
[7]
  EC50: 7.5 µM
[8]
  CC50: 36 µM
[9]
  EC50: 5 µM

## O=c1oc2ccccc2c(O)c1C(c1ccc(Br)cc1)c1c(O)c2ccccc2oc1=O
other
  melting point: 267.2 °C

## Nc1nc(O)c2ncn(COC(CO)CO)c2n1 [Ganciclovir, 9-[(1,3-dihydroxy-2-propoxy)methyl]guanine, reference compound]
[7]
  EC50: > 100 µM
[8]
  CC50: > 100 µM
[1]
  MCC (minimum cytotoxic concentration): >100 µM
[2]; read-out: EC50 HSV-2 (G)
  EC50: 0.03 µM
[3]
  EC50: > 100 µM
[9]
  EC50: 4.9 µM
[4]; read-out: EC50 Vaccinia virus
  EC50: > 100 µM
[5]; read-out: EC50 HSV-1 (KOS)
  EC50: 0.025 µM
[6]; [10]
  EC50: 0.1 µM

## O=c1oc2ccccc2c(O)c1C(c1ccc([N+](=O)[O-])cc1)c1c(O)c2ccccc2oc1=O [Compound 8, 3,3′-(4-Nitrobenzylidene)-bis-[4-hydroxycoumarin]]
[7]
  EC50: 8.5 µM
[8]
  CC50: 41 µM
[1]
  MCC (minimum cytotoxic concentration): 100 µM
[2]; read-out: EC50 HSV-2 (G)
  EC50: > 20 µM
[3]
  EC50: > 20 µM
[9]
  EC50: 6.9 µM
[4]; read-out: EC50 Vaccinia virus
  EC50: > 20 µM
[5]; read-out: EC50 HSV-1 (KOS)
  EC50: > 20 µM
[6]; [10]
  EC50: > 20 µM

## COc1cc(OC)c2c(c1)Oc1c(c(=O)oc3ccccc13)C2c1c(O)c2ccccc2oc1=O (stereo not drawn) [Compound 20, 3-[6-oxo-(1H)-15,17-dimethoxybenzopyrano[4,3-b]benzopyran-7-yl]-4-hydroxycoumarin]
other
  melting point: 287.9 °C
[7]
  EC50: 6.4 µM
[8]
  CC50: 27 µM
[1]
  MCC (minimum cytotoxic concentration): 100 µM
[2]; read-out: EC50 HSV-2 (G)
  EC50: > 20 µM
[3]
  EC50: > 20 µM
[9]
  EC50: 7.1 µM
[4]; read-out: EC50 Vaccinia virus
  EC50: > 20 µM
[5]; read-out: EC50 HSV-1 (KOS)
  EC50: > 20 µM
[6]; [10]
  EC50: > 20 µM

## O=c1oc2ccccc2c(O)c1C(c1cccc(Br)c1)c1c(O)c2ccccc2oc1=O [Compound 3, 3,3′-(3-Bromobenzylidene)-bis-[4-hydroxycoumarin]]
other
  melting point: 287 °C
[2]; read-out: EC50 HSV-2 (G)
  EC50: 9 µM
[2]; [11]
  EC50: 9 to 12 µM
[3]
  EC50: > 20 µM
[4]; read-out: EC50 Vaccinia virus
  EC50: 11 µM
[4]; read-out: inhibitory activity against vaccinia virus, one range given for several viruses
  EC50: 9 to 12 µM
[5]; read-out: EC50 HSV-1 (KOS)
  EC50: 9 µM
[5]; [12]
  EC50: 9 to 12 µM
[6]; [10]
  EC50: 9 µM
[6]; [13]
  EC50: 9 to 12 µM

## O=c1oc2ccccc2c(O)c1C(c1ccc(C(F)(F)F)cc1)c1c(O)c2ccccc2oc1=O [Compound 7, 3,3′-(4-Trifluoromethylbenzylidene)-bis-[4-hydroxycoumarin]]
other
  melting point: 271.3 °C
[1]
  MCC (minimum cytotoxic concentration): 20 µM
[2]; read-out: EC50 HSV-2 (G)
  EC50: > 4 µM
[3]
  EC50: > 4 µM
[4]; read-out: EC50 Vaccinia virus
  EC50: > 4 µM
[5]; read-out: EC50 HSV-1 (KOS)
  EC50: > 4 µM
[6]; [10]
  EC50: > 4 µM

— article PMC6264767 (Molecules, 2011)
